Measurements as given in US20040087512A1, “In-situ formation of CLA” (priority 1998, published 2004).

How the values were obtained:
C57/B1/6J mice [1] = test: Example 6: milk fat percentage of mice fed oleic acid isomer diets (creamatocrit); assay type: in vivo; details: for Milk fat on day 10 versus day 6 of lactation: isomer replaces about 25% of dietary fat, four days
Excerpt: (§1) C57/B1/6J mice fed a control diet (10 wt % fat) were switched to one of four isomer diets at day 6 of lactation after milk collection. Approximately 25% of the dietary fat (5 caloric %) during the treatment period was replaced with one of four specific isomers of oleic acid, either cis-9; cis-11; trans-9 or trams-11, other diet components were identical. The mice consumed these diets ad libitum for four days and were milked again on day 10 of lactation. Milk and fecal fatty acid composition was analyzed as fatty acid methyl esters by GC. Specific isomers were identified by relative retention times. Milk fat percentage was determined by the creamatocrit method and differences between day 6 and day 10 fat percentages were evaluated by a paired t-test.

C57/B1/6J mice [2] = test: Example 6: milk and fecal fatty acid composition of mice fed oleic acid isomer diets (GC of FAME); assay type: in vivo; details: day 10, fed the isomer diet
Excerpt: as §1

cows = test: Milk fat levels in cows ingesting C18 trans 11 fats; details: in vivo

Compound | Milk fat on day 10 versus day 6 of lactation (C57/B1/6J mice [1]) | Test isomer in milk (C57/B1/6J mice [2]) | Effect of ingestion on milk fat levels in cows (cows) | Effect of ingestion on milk fat in the lactation products of mammals (C57/B1/6J mice [1]; mouse, in vivo)
CCCCCCCC/C=C\CCCCCCCC(=O)O [cis-9] | identical fat values |  |  | 
CCCCCC/C=C\CCCCCCCCCC(=O)O [cis-11] | numerically lower | 10 % of the fat |  | 
CCCCCCCC/C=C/CCCCCCCC(=O)O [trans-9] | statistically lower | 5.8 % of the fat |  | 
CCCCCC/C=C/CCCCCCCCCC(=O)O [trans-11, trans vaccinic acid] | numerically lower | 3 % of the fat | do not reduce milk fat levels | does not reduce milk fat
